Laboratory results reported in ChEMBL document CHEMBL1201862, “PubChem BioAssay data set” (2004).
Activity calls are given as the source filed them.

Legend:
[1] = target: T1, Replicative DNA helicase DnaB (Mycobacterium tuberculosis, UniProt P9WMR3); test: DnaB intein splicing inhibitors, dose response, biochemical, cell-free fluorescence (AID 449749); type: functional
T1 sequence (P9WMR3 whole entry): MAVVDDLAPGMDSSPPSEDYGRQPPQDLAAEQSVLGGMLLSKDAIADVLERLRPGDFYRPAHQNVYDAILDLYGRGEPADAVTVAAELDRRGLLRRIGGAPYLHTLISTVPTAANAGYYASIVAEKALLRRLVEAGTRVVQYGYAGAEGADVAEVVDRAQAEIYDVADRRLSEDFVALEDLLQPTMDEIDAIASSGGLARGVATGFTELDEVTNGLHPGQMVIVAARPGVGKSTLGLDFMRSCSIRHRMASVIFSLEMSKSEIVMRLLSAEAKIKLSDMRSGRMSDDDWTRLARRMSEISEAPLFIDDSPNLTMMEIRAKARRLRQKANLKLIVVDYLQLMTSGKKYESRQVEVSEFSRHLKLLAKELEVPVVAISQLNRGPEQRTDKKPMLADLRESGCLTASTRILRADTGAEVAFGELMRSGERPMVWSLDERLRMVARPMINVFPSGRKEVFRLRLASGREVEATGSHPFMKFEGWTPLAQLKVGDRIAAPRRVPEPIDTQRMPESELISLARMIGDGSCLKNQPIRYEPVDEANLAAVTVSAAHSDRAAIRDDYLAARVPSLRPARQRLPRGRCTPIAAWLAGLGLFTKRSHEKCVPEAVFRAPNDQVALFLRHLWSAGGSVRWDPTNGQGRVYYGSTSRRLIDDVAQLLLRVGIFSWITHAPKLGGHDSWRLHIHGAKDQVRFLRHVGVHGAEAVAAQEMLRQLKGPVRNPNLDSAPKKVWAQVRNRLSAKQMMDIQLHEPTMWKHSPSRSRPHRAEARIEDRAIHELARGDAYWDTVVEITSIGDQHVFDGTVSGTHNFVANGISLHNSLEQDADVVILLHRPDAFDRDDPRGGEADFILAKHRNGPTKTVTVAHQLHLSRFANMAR

[2] = target: Glyceraldehyde-3-phosphate dehydrogenase (Homo sapiens, UniProt P04406)
[3] = target: T2, Sentrin-specific protease 6 (Homo sapiens, UniProt Q9GZR1); type: functional;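 note: Luminescence-based dose-response confirmatory assay of SENP6 inhibition, following up an ultra-high-throughput screen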
T2 sequence (Q9GZR1 whole entry): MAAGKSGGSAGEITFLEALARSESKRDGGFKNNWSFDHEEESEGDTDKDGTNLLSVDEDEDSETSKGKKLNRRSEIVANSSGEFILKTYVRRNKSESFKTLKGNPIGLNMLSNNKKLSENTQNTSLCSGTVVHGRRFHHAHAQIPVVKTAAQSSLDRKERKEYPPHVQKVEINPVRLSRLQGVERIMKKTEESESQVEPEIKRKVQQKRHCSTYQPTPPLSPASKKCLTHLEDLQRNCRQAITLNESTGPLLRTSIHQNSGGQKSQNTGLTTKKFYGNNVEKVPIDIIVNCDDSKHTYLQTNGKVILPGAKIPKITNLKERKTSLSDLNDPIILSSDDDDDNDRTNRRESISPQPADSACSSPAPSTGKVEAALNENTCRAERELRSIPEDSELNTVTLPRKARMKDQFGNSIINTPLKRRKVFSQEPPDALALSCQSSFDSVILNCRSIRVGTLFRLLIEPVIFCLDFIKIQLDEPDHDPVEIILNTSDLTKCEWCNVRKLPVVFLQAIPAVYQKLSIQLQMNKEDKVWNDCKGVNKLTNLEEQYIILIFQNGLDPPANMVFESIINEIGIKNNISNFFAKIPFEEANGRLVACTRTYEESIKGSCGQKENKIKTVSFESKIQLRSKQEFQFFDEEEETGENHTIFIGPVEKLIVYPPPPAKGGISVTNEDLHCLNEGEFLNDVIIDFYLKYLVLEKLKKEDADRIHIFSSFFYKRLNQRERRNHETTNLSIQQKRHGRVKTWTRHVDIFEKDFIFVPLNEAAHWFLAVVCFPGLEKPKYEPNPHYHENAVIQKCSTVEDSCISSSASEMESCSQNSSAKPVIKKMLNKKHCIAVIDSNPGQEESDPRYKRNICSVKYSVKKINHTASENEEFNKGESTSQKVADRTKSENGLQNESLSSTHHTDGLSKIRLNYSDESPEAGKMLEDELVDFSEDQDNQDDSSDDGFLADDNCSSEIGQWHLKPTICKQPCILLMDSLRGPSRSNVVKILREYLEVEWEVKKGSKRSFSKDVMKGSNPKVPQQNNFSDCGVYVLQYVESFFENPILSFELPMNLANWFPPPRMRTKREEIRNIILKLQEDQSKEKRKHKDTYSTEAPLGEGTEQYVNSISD

Leucine aminopeptidase = target: T3, Leucine aminopeptidase (Plasmodium falciparum 3D7, UniProt Q8IL11); test: P. falciparum M17LAP inhibitors, primary screen, biochemical, fluorogenic H-Leu-NHMec substrate, 1536-well (AID 1619); type: functional
T3 sequence (Q8IL11 whole entry): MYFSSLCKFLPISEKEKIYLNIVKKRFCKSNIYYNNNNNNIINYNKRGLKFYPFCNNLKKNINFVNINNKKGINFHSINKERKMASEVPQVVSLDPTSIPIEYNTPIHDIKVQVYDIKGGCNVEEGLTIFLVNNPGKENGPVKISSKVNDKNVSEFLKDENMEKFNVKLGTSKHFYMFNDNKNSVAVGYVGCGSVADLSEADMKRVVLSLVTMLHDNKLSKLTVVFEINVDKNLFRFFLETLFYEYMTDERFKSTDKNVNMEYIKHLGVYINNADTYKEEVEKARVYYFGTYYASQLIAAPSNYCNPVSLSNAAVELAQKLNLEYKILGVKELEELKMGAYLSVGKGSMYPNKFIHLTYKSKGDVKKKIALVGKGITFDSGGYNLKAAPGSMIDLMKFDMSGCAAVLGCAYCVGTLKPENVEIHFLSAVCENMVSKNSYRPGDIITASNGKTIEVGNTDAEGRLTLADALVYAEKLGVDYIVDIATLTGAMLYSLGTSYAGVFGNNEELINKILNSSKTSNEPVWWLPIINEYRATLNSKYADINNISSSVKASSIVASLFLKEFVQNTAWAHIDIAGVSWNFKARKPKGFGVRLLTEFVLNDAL

HT-1080 = test: cytotoxicity in HT1080 fibrosarcoma cells, cell-based, fluorescence readout (AID 620); type: functional; conditions: Homo sapiens

Sequence of Glyceraldehyde-3-phosphate dehydrogenase (P04406 whole entry): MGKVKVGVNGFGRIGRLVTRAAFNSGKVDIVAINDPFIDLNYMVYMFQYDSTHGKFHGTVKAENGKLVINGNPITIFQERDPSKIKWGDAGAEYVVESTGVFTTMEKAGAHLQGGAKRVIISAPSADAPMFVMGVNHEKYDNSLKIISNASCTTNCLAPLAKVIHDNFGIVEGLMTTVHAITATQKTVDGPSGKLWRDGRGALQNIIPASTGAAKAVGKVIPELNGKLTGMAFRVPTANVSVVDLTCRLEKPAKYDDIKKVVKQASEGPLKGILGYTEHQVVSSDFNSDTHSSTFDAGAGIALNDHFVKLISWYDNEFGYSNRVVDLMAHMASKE

Structure (SMILES)	AC50 [1]	IC50 [2]	IC50 [3]	IC50 (Leucine aminopeptidase)	EC50 (HT-1080)
COc1ccc(C(N)c2nccc3cc(OC)c(OC)cc23)cc1OC (stereo not given)	> 380 µM (inactive)	–	–	–	–
N#Cc1c(NC(=O)CSc2nc[nH]n2)sc2c1CCCCC2	–	> 100 µM (not active)	4 µM (active)	< 1 µM (active)	> 50 µM (not active)
